Measurements from patent publication US20260109709A1 (MIRATI THERAPEUTICS, INC., priority 2021, published 2026).
Where a name gives a salt, the structure may show the parent alone. Read-outs that look alike come from different tables or passages of the source.

Key:
PRMT5-MEP50 = target: T1, PRMT5-MEP50 (Homo sapiens, UniProt O14744); experiment: SPR binding assay (PRMT5.MTA and PRMT5·SAM surfaces); conditions: steady-state fit
T1 construct: biotin (in vivo biotinylated)
Experimental: In vivo biotinylated PRMT5-MEP50 was diluted to […] in 25 mM Bicine pH 7.6, 100 mM NaCl, 1 mM TCEP, and 0.05% Tween-20 and injected at 5 μl/min flow rate into flow cell 2 (FC2) of a Series S Sensor Chip SA (Cytiva) in a Biacore T200 or in a Biacore 8K plus (Cytiva). SPR screening was performed in MTA running buffer (25 mM Bicine pH 7.6, 100 mM NaCl, 1 mM TCEP, 20 µM MTA, 0.05% Tween-20 and 2% DMSO). The biotinylated PRMT5-MEP50 surface was equilibrated with MTA running buffer for 12 hours prior to the start. […] Subsequently, compound titration was repeated in SAM-running buffer (25 mM Bicine pH 7.6, 100 mM NaCl, 1 mM TCEP, 20 μM SAM, 0.05% Tween-20, and 2% DMSO). […] After double referencing, the steady-state response was extracted for each fragment concentration and was fit to the Langmuir isotherm equation to determine the equilibrium dissociation constant (KD).

PRMT5/MEP50 complex = target: T2, PRMT5/MEP50 complex (Homo sapiens, UniProt O14744); experiment: PRMT5:MEP50 FlashPlate Assay (histone H4 peptide methylation); assay type: biochemical; conditions: 40 nM H4 (1-15) peptide, 1 μM SAM
T2 construct: purchased Reaction Biology Corporation
Experimental: The PRMT5 inhibitory activity of compounds of the present invention was determined using a PRMT5: MEP50 FlashPlate Assay and a PRMT5: MEP50 HotSpot Assay (Reaction Biology Corporation).
The assay uses purified human, PRMT5 enzyme to convert S-adenosyl-L-[methyl-3H]methionine plus histone H4 L-arginine to S-adenosyl-L-homocysteine plus histone H4 [methyl-3H]-L-arginine. The assay was carried out using Streptavidin-coated FlashPlates (Perkin Elmer), which contained a scintillant embedded in the plastic of the plate. The histone H4 peptide substrate was conjugated with biotin, which binds to the streptavidin-coated well of the plate, placing the H4 peptide in close proximity to the side well and the scintillant. The transfer of the tritiated methyl group from S-adenosyl-L-[methyl-3H]methionine to the bound histone H4 peptide generated a radiolabeled histone H4, which was quantitated by measuring in a scintillation counter to determine the activity of PRMT5 enzyme in the presence and absence of compound. […] Briefly, compounds of the present invention were solubilized in 100% DMSO at a highest concentration of 10 mM. […] Control samples lacking compound, PRMT5/MEP50 complex or various reaction components also were prepared and processed in parallel with compound test samples. SAH was used as a positive control for assay validation. To measure PRMT5 inhibitory activity, 3 nM PRMT5/MEP50 complex (Reaction Biology Corporation) was preincubated with test compound in assay buffer containing 40 nM histone H4 peptide (amino acids 1-15)-Biotin conjugate for 20 min at room temperature. The enzymatic reaction was initiated by adding 1 μM tritiated S-adenosyl methionine (final concentration) and the reaction is allowed to proceed for 20 min. The reaction was stopped and the amount of bound, tritiated H4 peptide in each sample was determined using a scintillation counter.

[1] = PRMT5.MTA surface, MTA running buffer (20 µM MTA), read-out: KD MTA
[2] = PRMT5·SAM surface, SAM running buffer (20 μM SAM), read-out: KD SAM

T2 sequence (O14744 2-637 limits assumed): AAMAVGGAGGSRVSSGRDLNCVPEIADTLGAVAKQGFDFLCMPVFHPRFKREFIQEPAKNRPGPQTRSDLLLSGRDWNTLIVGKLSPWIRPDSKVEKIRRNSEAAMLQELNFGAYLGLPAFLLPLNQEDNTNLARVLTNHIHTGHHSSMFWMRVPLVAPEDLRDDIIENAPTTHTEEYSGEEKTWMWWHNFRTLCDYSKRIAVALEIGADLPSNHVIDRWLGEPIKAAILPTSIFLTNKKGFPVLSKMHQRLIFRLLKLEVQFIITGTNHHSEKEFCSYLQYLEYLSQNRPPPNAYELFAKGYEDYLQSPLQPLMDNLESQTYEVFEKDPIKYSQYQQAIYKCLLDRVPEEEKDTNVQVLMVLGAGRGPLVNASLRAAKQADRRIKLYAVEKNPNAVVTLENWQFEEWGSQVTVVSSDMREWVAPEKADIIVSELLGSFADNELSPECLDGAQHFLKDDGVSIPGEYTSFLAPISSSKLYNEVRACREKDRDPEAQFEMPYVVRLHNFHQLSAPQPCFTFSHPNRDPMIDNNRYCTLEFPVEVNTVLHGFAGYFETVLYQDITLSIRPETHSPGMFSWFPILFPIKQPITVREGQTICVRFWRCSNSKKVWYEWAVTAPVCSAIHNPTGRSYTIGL
T2 sequence (Q9BQA1 2-342 partner limits assumed): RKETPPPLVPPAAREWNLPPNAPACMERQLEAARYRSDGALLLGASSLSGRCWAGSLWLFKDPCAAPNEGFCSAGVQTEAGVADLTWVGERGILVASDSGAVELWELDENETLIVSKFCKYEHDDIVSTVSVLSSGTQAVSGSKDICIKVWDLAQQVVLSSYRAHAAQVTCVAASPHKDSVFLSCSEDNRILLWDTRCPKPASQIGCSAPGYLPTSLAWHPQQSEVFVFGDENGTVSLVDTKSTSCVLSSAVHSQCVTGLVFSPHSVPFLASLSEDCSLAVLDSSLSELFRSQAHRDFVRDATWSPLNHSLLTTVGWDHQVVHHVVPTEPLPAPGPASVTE
T1 sequence (O14744 whole entry): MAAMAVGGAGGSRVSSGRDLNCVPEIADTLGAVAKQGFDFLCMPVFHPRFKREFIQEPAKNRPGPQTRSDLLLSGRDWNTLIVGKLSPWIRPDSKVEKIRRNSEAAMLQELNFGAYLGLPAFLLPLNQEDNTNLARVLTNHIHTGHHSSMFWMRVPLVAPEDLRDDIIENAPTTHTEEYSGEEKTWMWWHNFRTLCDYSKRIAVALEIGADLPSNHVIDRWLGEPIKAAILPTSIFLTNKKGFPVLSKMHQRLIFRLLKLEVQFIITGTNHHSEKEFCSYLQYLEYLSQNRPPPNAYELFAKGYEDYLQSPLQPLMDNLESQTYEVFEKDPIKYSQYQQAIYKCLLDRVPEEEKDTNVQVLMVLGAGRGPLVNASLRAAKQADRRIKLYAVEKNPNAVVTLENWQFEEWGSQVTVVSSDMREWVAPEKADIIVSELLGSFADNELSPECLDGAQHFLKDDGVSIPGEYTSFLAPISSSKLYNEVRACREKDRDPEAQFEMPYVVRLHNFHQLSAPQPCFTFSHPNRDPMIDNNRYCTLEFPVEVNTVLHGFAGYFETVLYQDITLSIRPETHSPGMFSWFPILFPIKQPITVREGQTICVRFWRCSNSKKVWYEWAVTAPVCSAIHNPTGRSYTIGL
T1 sequence (Q9BQA1 whole entry partner): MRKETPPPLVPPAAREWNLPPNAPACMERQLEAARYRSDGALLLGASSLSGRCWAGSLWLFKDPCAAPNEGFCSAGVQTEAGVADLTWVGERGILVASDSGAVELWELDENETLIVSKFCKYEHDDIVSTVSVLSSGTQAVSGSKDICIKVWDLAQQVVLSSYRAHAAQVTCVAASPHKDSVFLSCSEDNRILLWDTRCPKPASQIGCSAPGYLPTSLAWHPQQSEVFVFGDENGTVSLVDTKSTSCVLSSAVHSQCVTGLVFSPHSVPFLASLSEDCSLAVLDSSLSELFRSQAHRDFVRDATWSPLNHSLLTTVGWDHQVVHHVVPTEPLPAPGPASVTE

| SMILES | Kd (PRMT5-MEP50; [1]) [nM] | Kd (PRMT5-MEP50; [2]) [nM] | IC50 (PRMT5/MEP50 complex; IC50 + 2 μM MTA, plus 2 μM MTA) [µM] | IC50 (PRMT5/MEP50 complex; absence of MTA, read-out: IC50) [µM] |
| --- | --- | --- | --- | --- |
| Cn1ncc(-c2ccc(Cl)c3c2nc(N)n3C)c1-c1c(F)cc2ccccc2c1C#N [Example 2-2, 2-[4-(2-amino-7-chloro-1-methyl-benzimidazol-4-yl)-2-methyl-pyrazol-3-yl]-3-fluoro-naphthalene-1-carbonitrile hydrochloride] | 151 | 679 | 0.527 | 10.7 |
| Cn1c(N)nc2c(Nc3cnc4c(c3)CCCC4)ccc(Cl)c21 [Example 2-4, 7-chloro-1-methyl-N^4-(5,6,7,8-tetrahydroquinolin-3-yl)-1H-benzo[d]imidazole-2,4-diamine hydrochloride] | 26800 | 40900 | > 300 | > 300 |
| Cn1c(N)nc2c(C3CCOC3)ccc(Cl)c21 (stereo not drawn) [Example 2-8, 7-chloro-1-methyl-4-tetrahydrofuran-3-yl-benzimidazol-2-amine hydrochloride] | 24700 | – | > 300 | > 300 |
| CN(c1cccnc1)c1cc(Cl)c2c(c1)nc(N)n2C [Example 2-9, 7-chloro-N5-1-dimethyl-N5-(3-pyridyl)benzimidazole-2,5-diamine hydrochloride] | 65700 | 175000 | > 300 | > 300 |
| Cn1c(N)nc2cc(Cc3cccnc3)cc(Cl)c21 [Example 2-10, 7-chloro-1-methyl-5-(3-pyridylmethyl)benzimidazol-2-amine hydrochloride] | 1520 | 48400 | 97.6 | > 300 |
| Cn1cc(Cc2cc(C#N)c3c(c2)nc(N)n3C)cn1 [Example 3-6, 2-amino-3-methyl-6-[ (1-methylpyrazol-4-yl)methyl]benzimidazole-4-carbonitrile] | 179 | 1940 | 44.4 | > 300 |

More lines, now with the values ahead:

| Kd (PRMT5-MEP50; [1]) [nM] | Kd (PRMT5-MEP50; [2]) [nM] | IC50 (PRMT5/MEP50 complex; IC50 + 2 μM MTA, plus 2 μM MTA) [µM] | IC50 (PRMT5/MEP50 complex; absence of MTA, read-out: IC50) [µM] | SMILES |
| --- | --- | --- | --- | --- |
| 513 | 35600 | 110 | > 300 | Cn1c(N)nc2cc(Cc3cccnc3)cc(C#N)c21 [Example 3-2, 2-amino-3-methyl-6-(3-pyridylmethyl)benzimidazole-4-carbonitrile] |
| 187 | 2750 | 17.6 | 134 | Cn1c(N)nc2cc(Cc3ccccn3)cc(C#N)c21 [Example 3-3, 2-amino-3-methyl-6-(2-pyridylmethyl)benzimidazole-4-carbonitrile] |
| 1140 | 2770 | > 300 | > 300 | Cn1nc(-c2cc(C#N)c3c(c2)nc(N)n3C)c2cnccc21 [Example 3-5, 2-amino-3-methyl-6-(1-methylpyrazolo[4,3-c]pyridin-3-yl)benzimidazole-4-carbonitrile] |
| 4430 | 10200 | > 300 | > 300 | Cn1nccc1Cc1cc(C#N)c2c(c1)nc(N)n2C [Example 3-8, 2-amino-3-methyl-6-[ (2-methylpyrazol-3-yl)methyl]benzimidazole-4-carbonitrile] |
| 879 | 3670 | 16.9 | 219 | Cn1c(N)nc2cc(Cc3ccc4ccncc4c3)cc(C#N)c21 [Example 3-9, 2-amino-6-(7-isoquinolylmethyl)-3-methyl-benzimidazole-4-carbonitrile] |
| 7510 | 23600 | > 300 | > 300 | Cn1c(N)nc2cc(C(=O)c3cccnc3)cc(C#N)c21 [Example 3-16, 2-amino-3-methyl-6-(pyridine-3-carbonyl)benzimidazole-4-carbonitrile] |
| – | 176000 | 76.2 | > 300 | Nc1nc2ncccc2n1Cc1ccccc1 [Example 5-2, 1-benzylimidazo[4,5-b]pyridin-2-amine hydrochloride] |
| 322 | 816 | 14 | > 300 | Cn1ncc(-c2cc(Cl)cc3c2nc(N)n3C)c1-c1ccccc1C#N [Example 6-1, 2-[4-(2-amino-6-chloro-1-methyl-benzimidazol-4-yl)-2-methyl-pyrazol-3-yl]benzonitrile] |
| 47 | – | 29.3 | > 300 | Cc1cc(-c2cnn(C)c2-c2ccccc2C#N)c2nc(N)n(C)c2c1 [Example 6-2, 2-[4-(2-amino-1,6-dimethyl-benzimidazol-4-yl)-2-methyl-pyrazol-3-yl]benzonitrile hydrochloride] |
